In assay [1] the test system is avidin-expressing and non-expressing tumor cells. To be noted: expected outcome; LD50 against expressing vs. non-expressing cells. An excerpt:
The LD50 against avidin-expressing and non-expressing tumor cells of each will be evaluated, in vitro. The maximum tolerated dose and anti-tumor efficacy of each will also be evaluated in PCa models. […] Upon necropsy, tumor xenografts will be pathologically analyzed to evaluate cell killing. […] Tumor size will be measured with calipers, or with BLI in the case of g- or fLuc-expressing cells.

The next assay concerns tumors and metastases. To be noted: prior studies, adenovirus-based oncolytic gene delivery, nude mice; cited from earlier work.

Take ^90Y-CHX-A-DTPA-biotin [^90Y conjugate]: in assay [1], the “specificity of cell killing to avidin expressing cells” value was “less specific to avidin expressing cells”. On the same count and under the same terms, the entry for “^213Bi-CHX-A-DTPA-biotin [^213Bi conjugate]” is “highly specific to expressing cells”.

B1: MDA-7/IL-24: melanoma differentiation associated gene-7/Interleukin-24, immunomodulatory cytokine, delivered by adenovirus (protein, UniProt Q13007 52-206, looked up)
Interleukin-24: QEFHFGPCQVKGVVPQKLWEAFWAVKDTMQAQDNITSARLLQQEVLQNVSDAESCYLVHTLLEFYLKTVFKNYHNRTVEVRTLKSFSTLANNFVLIVSQLQPSQENEMFSIRDSAHRRFLLFRRAFKQLDVEAALTKALGEVDILLTWMQKFYKL
modifications: adenovirus-delivered
notes: melanoma differentiation associated gene-7/Interleukin-24, immunomodulatory cytokine, delivered by adenovirus
B1: the “effect on tumors and metastases” value in the assay on tumors and metastases was “complete eradication of tumors and metastases”.

Values taken from patent US9994865B2, “PEG-Prom mediated surface expression of avidin/streptavidin” (The Johns Hopkins University, priority 2013, dated 2018).
